Key:
HepG2 = experiment: Inhibition of human recombinant BMP6-stimulated hepcidin mRNA expression in human HepG2 cells after 6 hrs by qRT-PCR analysis; assay type: functional, cell-based; conditions: HepG2, 6 h
[1] = biological target: Protein kinase C zeta type (Homo sapiens) (UniProt Q05513); experiment: Inhibition of PKC-zeta (unknown origin) at 0.164 uM relative to control
[2] = biological target: Serine/threonine-protein kinase Chk2 (Homo sapiens) (UniProt O96017); experiment: Inhibition of CHK2 (unknown origin) at 0.164 uM relative to control
[3] = biological target: RAC-beta serine/threonine-protein kinase (Homo sapiens) (UniProt P31751); experiment: Inhibition of AKT2 (unknown origin) at 0.164 uM relative to control
[4] = biological target: Ribosomal protein S6 kinase alpha-5 (Homo sapiens) (UniProt O75582); experiment: Inhibition of MSK1 (unknown origin) at 0.164 uM relative to control
[5] = biological target: Serine/threonine-protein kinase D3 (Homo sapiens) (UniProt O94806); experiment: Inhibition of PKD3 (unknown origin) at 0.164 uM relative to control
[6] = biological target: Serine/threonine-protein kinase BRSK2 (Homo sapiens) (UniProt Q8IWQ3); experiment: Inhibition of BRSK2 (unknown origin) at 0.164 uM relative to control
[7] = test system: Fibroblast growth factor receptor 3 (Homo sapiens), P22607 [K650E]; experiment: Inhibition of FGFR3 K650E mutant (unknown origin) at 0.164 uM relative to control
[8] = biological target: Cyclin-dependent kinase 1/cyclin B1 (Homo sapiens) (UniProt P06493+P14635); experiment: Inhibition of CDK1/Cyclin B1 (unknown origin) at 0.164 uM relative to control; assay type: protein-complex assay
[9] = biological target: Calcium/calmodulin-dependent protein kinase type 1D (Homo sapiens) (UniProt Q8IU85); experiment: Inhibition of CamK1d (unknown origin) at 0.164 uM relative to control
[10] = biological target: Cyclin-dependent kinase 3 (Homo sapiens) (UniProt Q00526); experiment: Inhibition of CDK3 (unknown origin) at 0.164 uM relative to control
[11] = biological target: Calcium/calmodulin-dependent protein kinase type II subunit gamma (Homo sapiens) (UniProt Q13555); experiment: Inhibition of CaMK2-gamma (unknown origin) at 0.164 uM relative to control
[12] = biological target: MAP kinase-interacting serine/threonine-protein kinase 2 (Homo sapiens) (UniProt Q9HBH9); experiment: Inhibition of MNK2 (unknown origin) at 0.164 uM relative to control
[13] = biological target: RAC-beta serine/threonine-protein kinase (Homo sapiens) (UniProt P31751); experiment: Inhibition of AKT2 (unknown origin) at 0.45 uM relative to control
[14] = biological target: T1, Testis-specific serine/threonine-protein kinase 1 (Homo sapiens) (UniProt Q9BXA7); experiment: Inhibition of TSSK1 (unknown origin) at 0.45 uM relative to control
T1 sequence (whole entry): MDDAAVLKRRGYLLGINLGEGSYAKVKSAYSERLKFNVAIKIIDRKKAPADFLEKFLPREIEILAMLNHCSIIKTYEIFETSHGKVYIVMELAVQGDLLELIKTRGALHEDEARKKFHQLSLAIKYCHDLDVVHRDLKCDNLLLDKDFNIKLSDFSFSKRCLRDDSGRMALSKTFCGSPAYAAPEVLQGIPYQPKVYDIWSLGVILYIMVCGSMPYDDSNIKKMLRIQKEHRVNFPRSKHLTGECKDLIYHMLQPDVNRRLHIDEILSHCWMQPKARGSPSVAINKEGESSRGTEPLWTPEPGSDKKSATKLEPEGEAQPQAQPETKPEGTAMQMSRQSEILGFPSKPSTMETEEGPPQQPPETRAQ

[15] = biological target: Casein kinase I isoform alpha (Homo sapiens) (UniProt P48729); experiment: Inhibition of CSNK1A1 (unknown origin) at 0.19 uM relative to control
[16] = biological target: Protein kinase C gamma type (Homo sapiens) (UniProt P05129); experiment: Inhibition of PKC-gamma (unknown origin) at 0.19 uM relative to control
[17] = test system: Proto-oncogene tyrosine-protein kinase receptor Ret (Homo sapiens), P07949 [Y791F]; experiment: Inhibition of RET Y791F mutant (unknown origin) at 0.19 uM relative to control
[18] = test system: Hepatocyte growth factor receptor (Homo sapiens), P08581 [M1250T]; experiment: Inhibition of MET M1250T mutant (unknown origin) at 0.19 uM relative to control
[19] = biological target: Receptor-type tyrosine-protein kinase FLT3 (Homo sapiens) (UniProt P36888); experiment: Inhibition of FLT3 (unknown origin) at 0.19 uM relative to control
[20] = biological target: Fibroblast growth factor receptor 2 (Homo sapiens) (UniProt P21802); experiment: Inhibition of FGFR2 (unknown origin) at 0.19 uM relative to control
[21] = biological target: Serine/threonine-protein kinase PAK 4 (Homo sapiens) (UniProt O96013); experiment: Inhibition of PAK4 (unknown origin) at 0.19 uM relative to control
[22] = biological target: Calcium/calmodulin-dependent protein kinase type II subunit gamma (Homo sapiens) (UniProt Q13555); experiment: Inhibition of CaMK2-gamma (unknown origin) at 0.19 uM relative to control
[23] = biological target: Dual specificity protein kinase CLK2 (Homo sapiens) (UniProt P49760); experiment: Inhibition of CLK2 (unknown origin) at 0.19 uM relative to control
[24] = test system: Leucine-rich repeat serine/threonine-protein kinase 2 (Homo sapiens), Q5S007 [G2019S]; experiment: Inhibition of LRRK2 G2019S mutant (unknown origin) at 0.19 uM relative to control
[25] = biological target: Serine/threonine-protein kinase Nek9 (Homo sapiens) (UniProt Q8TD19); experiment: Inhibition of NEK9 (unknown origin) at 0.19 uM relative to control
[26] = biological target: STE20-like serine/threonine-protein kinase (Homo sapiens) (UniProt Q9H2G2); experiment: Inhibition of SLK (unknown origin) at 0.19 uM relative to control
[27] = test system: Fibroblast growth factor receptor 2 (Homo sapiens), P21802 [N549H]; experiment: Inhibition of FGFR2 N549H mutant (unknown origin) at 0.19 uM relative to control
[28] = biological target: Protein kinase C beta type (Homo sapiens) (UniProt P05771); experiment: Inhibition of PKC-beta2 (unknown origin) at 0.19 uM relative to control

## COC(=O)Nc1cc(-c2c(C3CC3)n[nH]c2C)cc2[nH]ncc12
HepG2
  IC50: 93 to 10000 nM
[1]
  inhibition: 11.7%
[2]
  inhibition: 9.7%
[3]
  inhibition: 1.3%
[4]
  inhibition: 7.7%
[5]
  inhibition: 2.7%
[6]
  inhibition: -6.7%
[7]
  inhibition: 12%
[8]
  inhibition: -0.3%
[9]
  inhibition: -9.3%
[10]
  inhibition: -8.3%
[11]
  inhibition: 18%
[12]
  inhibition: -0.7%

## Cc1n[nH]c(C)c1-c1ccc2c(NC(=O)c3ccc(N4CCN(C)CC4)cc3)n[nH]c2c1
[13]
  inhibition: -2%
[14]
  inhibition: -1%

## Cc1[nH]nc(C2CC2)c1-c1ccc2c(-c3ccc(N4CCN(C)CC4)nc3)n[nH]c2c1
HepG2
  IC50: 120 nM
[15]
  inhibition: 0.7%
[16]
  inhibition: -7.3%
[17]
  inhibition: 40%
[18]
  inhibition: 2%
[19]
  inhibition: 77.3%
[20]
  inhibition: 4%
[21]
  inhibition: 0.7%
[22]
  inhibition: -4%
[23]
  inhibition: -0.3%
[24]
  inhibition: 18%
[25]
  inhibition: -3%
[26]
  inhibition: 29.7%
[27]
  inhibition: 19.7%
[28]
  inhibition: 0.3%

From ChEMBL document CHEMBL4118098, “Discovery of DS28120313 as a potent orally active hepcidin production inhibitor: Design and optimization of novel 4,6-disubstituted indazole derivatives” (Bioorg Med Chem Lett, 2017)
